Drawing on patent US20220396565A1 (Hoffmann-La Roche Inc., priority 2020, published 2022), this text covers IC90 for 24 molecules.

Counter-ions that a name gives are not always drawn.

This test has as its system Acinetobacter baumannii ATCC17961. Briefly: Antimicrobial susceptibility testing: 90% growth inhibitory concentration (IC90) determination, Iso-Sensitest broth. The test is classed as cell-based. The conditions noted are these: Acinetobacter baumannii, ATCC17961, 90% growth inhibitory concentration, Acinetobacter baumannii ATCC17961, Iso-Sensitest broth; read-out: ATCC 17961 IC90. The method in brief:
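Twofold serial dilutions (e.g. 10 to 0.02 μM final) were tested in Iso-Sensitest broth against ~5×10^(5) CFU/ml at 35±2 °C. OD600 was read every 20 min over 16 h. IC90 was derived from growth inhibition during the logarithmic phase.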
`COc1ccc(-c2cnc(C(=O)Nc3ccc(C(=O)N4CCN(C(=O)CCN)CC4)c(Cl)c3)n2C)c(F)c1F` [Example 123, N-[4-[4-(3-aminopropanoyl)piperazine-1-carbonyl]-3-chloro-phenyl]-5-(2,3-difluoro-4-methoxy-phenyl)-1-methyl-imidazole-2-carboxamide formate]: the IC90 is 40 nM.
As for `COc1ccc(-c2cnc(C(=O)Nc3ccc(C(=O)N4CCN(C(=O)CCCCN)CC4)c(Cl)c3)n2C)c(F)c1F` [Example 124, N-[4-[4-(5-aminopentanoyl)piperazine-1-carbonyl]-3-chloro-phenyl]-5-(2,3-difluoro-4-methoxy-phenyl)-1-methyl-imidazole-2-carboxamide formate], the IC90 came out at 40 nM.
Regarding `COc1ccc(-c2cnc(C(=O)Nc3ccc(C(=O)N4CCN(C(=O)C5CCC(=O)NC5)CC4)c(Cl)c3)n2C)c(F)c1F` (stereo not drawn) [Example 125, N-[3-chloro-4-[4-(6-oxopiperidine-3-carbonyl)piperazine-1-carbonyl]phenyl]-5-(2,3-difluoro-4-methoxy-phenyl)-1-methyl-imidazole-2-carboxamide], the IC90 was 110 nM.
For `COc1ccc(-c2cnc(C(=O)Nc3ccc(C(=O)N4CCN(C(=O)C5CCC(=O)N5)CC4)c(Cl)c3)n2C)c(F)c1F` (stereo not drawn) [Example 126, N-[3-chloro-4-[4-(5-oxopyrrolidine-2-carbonyl)piperazine-1-carbonyl]phenyl]-5-(2,3-difluoro-4-methoxy-phenyl)-1-methyl-imidazole-2-carboxamide] the value was 110 nM; for `COc1ccc(-c2cnc(C(=O)Nc3ccc(C(=O)N4CCN(C(=O)CC5CCC(=O)N5)CC4)c(Cl)c3)n2C)c(F)c1F` (stereo not drawn) [Example 127, N-[3-chloro-4-[4-[2-(5-oxopyrrolidin-2-yl)acetyl]piperazine-1-carbonyl]phenyl]-5-(2,3-difluoro-4-methoxy-phenyl)-1-methyl-imidazole-2-carboxamide], 100 nM.
`COc1ccc(-c2cnc(C(=O)Nc3ccc(C(=O)N4CCN(C(=O)CC5NC(=O)NC5=O)CC4)c(Cl)c3)n2C)c(F)c1F` (stereo not drawn) [Example 128, N-[3-chloro-4-[4-[2-(2,5-dioxoimidazolidin-4-yl)acetyl]piperazine-1-carbonyl]phenyl]-5-(2,3-difluoro-4-methoxy-phenyl)-1-methyl-imidazole-2-carboxamide]: the IC90 was determined as 270 nM.
Take `COc1ccc(-c2cnc(C(=O)Nc3ccc(C(=O)N4CCN(C(=O)CC5CNC(=O)C5)CC4)c(Cl)c3)n2C)c(F)c1F` (stereo not drawn) [Example 129, N-[3-chloro-4-[4-[2-(5-oxopyrrolidin-3-yl)acetyl]piperazine-1-carbonyl]phenyl]-5-(2,3-difluoro-4-methoxy-phenyl)-1-methyl-imidazole-2-carboxamide]: the IC90 worked out at 40 nM.
For `COc1ccc(-c2cnc(C(=O)Nc3ccc(C(=O)N4CCN(C(=O)CCCC[C@@H]5SC[C@@H]6NC(=O)N[C@@H]65)CC4)c(Cl)c3)n2C)c(F)c1F` [Example 130, N-[4-[4-[5-[(3aS,4S,6aR)-2-oxo-1,3,3a,4,6,6a-hexahydrothieno[3,4-d]imidazol-4-yl]pentanoyl]piperazine-1-carbonyl]-3-chloro-phenyl]-5-(2,3-difluoro-4-methoxy-phenyl)-1-methyl-imidazole-2-carboxamide] the value was 260 nM; for `COc1ccc(-c2cnc(C(=O)Nc3ccc(C(=O)N4CCN(C(=O)CCOCCOCCN)CC4)c(Cl)c3)n2C)c(F)c1F` [Example 131, N-[4-[4-[3-[2-(2-aminoethoxy)ethoxy]propanoyl]piperazine-1-carbonyl]-3-chloro-phenyl]-5-(2,3-difluoro-4-methoxy-phenyl)-1-methyl-imidazole-2-carboxamide formate], 90 nM; for `COc1ccc(-c2cnc(C(=O)Nc3ccc(C(=O)N4CCN(C(=O)C56CC(N)(C5)C6)CC4)c(Cl)c3)n2C)c(F)c1F` [Example 132, N-[4-[4-(3-aminobicyclo[1.1.1]pentane-1-carbonyl)piperazine-1-carbonyl]-3-chloro-phenyl]-5-(2,3-difluoro-4-methoxy-phenyl)-1-methyl-imidazole-2-carboxamide formate], 70 nM.
In the case of `COc1ccc(-c2cnc(C(=O)Nc3ccc(C(=O)N4CCN(C(=O)C5CNC(=O)N5)CC4)c(Cl)c3)n2C)c(F)c1F` (stereo not drawn) [Example 133, N-[3-chloro-4-[4-(2-oxoimidazolidine-4-carbonyl)piperazine-1-carbonyl]phenyl]-5-(2,3-difluoro-4-methoxy-phenyl)-1-methyl-imidazole-2-carboxamide], the IC90 is 170 nM.
The value for `COc1ccc(-c2cnc(C(=O)Nc3ccc(C(=O)N4CCN(C(=O)CCC#N)CC4)c(Cl)c3)n2C)c(F)c1F` [Example 134, N-[3-chloro-4-[4-(3-cyanopropanoyl)piperazine-1-carbonyl]phenyl]-5-(2,3-difluoro-4-methoxy-phenyl)-1-methyl-imidazole-2-carboxamide] was 100 nM.
The value for `COc1ccc(-c2cnc(C(=O)Nc3ccc(C(=O)N4CCN(C(=O)CCCNC(=N)N)CC4)c(Cl)c3)n2C)c(F)c1F` [Example 135, N-[3-chloro-4-[4-(4-guanidinobutanoyl)piperazine-1-carbonyl]phenyl]-5-(2,3-difluoro-4-methoxy-phenyl)-1-methyl-imidazole-2-carboxamide formate] was 30 nM.
The value for `Cn1c(-c2ccc(OCF)c(F)c2F)cnc1C(=O)Nc1ccc(C(=O)N2CCN(C(=O)C3[C@H]4CNC[C@@H]34)CC2)c(Cl)c1` (stereo partly drawn) [Example 136, N-[4-[4-[(1R,5S)-3-azabicyclo[3.1.0]hexane-6-carbonyl]piperazine-1-carbonyl]-3-chloro-phenyl]-5-[2,3-difluoro-4-(fluoromethoxy)phenyl]-1-methyl-imidazole-2-carboxamide formate] was 30 nM.
Turning to `COc1ccc(-c2cnc(C(=O)Nc3ccc(C(=O)N4CCN(C(=O)[C@H]5C[C@H](N)C5)CC4)c(Cl)c3)n2C)c(F)c1F` [Example 137, N-[4-[4-(3-aminocyclobutanecarbonyl)piperazine-1-carbonyl]-3-chloro-phenyl]-5-(2,3-difluoro-4-methoxy-phenyl)-1-methyl-imidazole-2-carboxamide formate], the IC90 was found to be 40 nM.
For `COc1ccc(-c2cnc(C(=O)Nc3ccc(C(=O)N4CCN(C(=O)[C@@H]5CCNC5)CC4)c(Cl)c3)n2C)c(F)c1F` [Example 138, N-[3-chloro-4-[4-[(3R)-pyrrolidine-3-carbonyl]piperazine-1-carbonyl]phenyl]-5-(2,3-difluoro-4-methoxy-phenyl)-1-methyl-imidazole-2-carboxamide formate], the IC90 was 30 nM.
Consider `COc1ccc(-c2cnc(C(=O)Nc3ccc(C(=O)N4CCN(C(=O)[C@H]5CCNC5)CC4)c(Cl)c3)n2C)c(F)c1F` [Example 139, N-[3-chloro-4-[4-[(3S)-pyrrolidine-3-carbonyl]piperazine-1-carbonyl]phenyl]-5-(2,3-difluoro-4-methoxy-phenyl)-1-methyl-imidazole-2-carboxamide formate], for which the IC90 amounted to 40 nM.
The value for `COc1ccc(-c2cnc(C(=O)Nc3ccc(C(=O)N4CCN(C(=O)[C@H]5C[C@@H](N)C5)CC4)c(Cl)c3)n2C)c(F)c1F` [Example 140, N-[4-[4-(3-aminocyclobutanecarbonyl)piperazine-1-carbonyl]-3-chloro-phenyl]-5-(2,3-difluoro-4-methoxy-phenyl)-1-methyl-imidazole-2-carboxamide formate] was 50 nM.
For `COc1ccc(-c2cnc(C(=O)Nc3ccc(C(=O)N4CCN(C(=O)C5(O)CCNC5)CC4)c(Cl)c3)n2C)c(F)c1F` (stereo not drawn) [Example 141, N-[3-chloro-4-[4-(3-hydroxypyrrolidine-3-carbonyl)piperazine-1-carbonyl]phenyl]-5-(2,3-difluoro-4-methoxy-phenyl)-1-methyl-imidazole-2-carboxamide formate] the value was 60 nM; for `COc1ccc(-c2cnc(C(=O)Nc3ccc(C(=O)N4CCN(C(=O)CC5CCNCC5)CC4)c(Cl)c3)n2C)c(F)c1F` [Example 142, N-[3-chloro-4-[4-[2-(4-piperidyl)acetyl]piperazine-1-carbonyl]phenyl]-5-(2,3-difluoro-4-methoxy-phenyl)-1-methyl-imidazole-2-carboxamide; formic acid], 40 nM.
The value for `Cn1c(-c2ccc(OCF)c(F)c2F)cnc1C(=O)Nc1ccc(C(=O)N2CCN(C(=O)C3CCNCC3)CC2)c(Cl)c1` [Example 143, N-[3-chloro-4-[4-(piperidine-4-carbonyl)piperazine-1-carbonyl]phenyl]-5-[2,3-difluoro-4-(fluoromethoxy)phenyl]-1-methyl-imidazole-2-carboxamide formate] was 30 nM; that for `Cn1c(-c2ccc(OC(F)F)c(F)c2)cnc1C(=O)Nc1ccc(C(=O)N2CCN(C(=O)C3CCNCC3)CC2)c(Cl)c1` [Example 144, N-[3-chloro-4-[4-(piperidine-4-carbonyl)piperazine-1-carbonyl]phenyl]-5-[4-(difluoromethoxy)-3-fluoro-phenyl]-1-methyl-imidazole-2-carboxamide formate] was 60 nM; that for `COc1ccc(-c2cnc(C(=O)Nc3ccc(C(=O)N4CCN(C(=O)CC5CNC5)CC4)c(Cl)c3)n2C)c(F)c1F` [Example 145, N-[4-[4-[2-(azetidin-3-yl)acetyl]piperazine-1-carbonyl]-3-chloro-phenyl]-5-(2,3-difluoro-4-methoxy-phenyl)-1-methyl-imidazole-2-carboxamide formate] was 40 nM.
Turning to `Cn1c(-c2ccc(OCF)c(F)c2Cl)cnc1C(=O)Nc1ccc(C(=O)N2CCN(C(=O)C[C@@H]3CCNC3)CC2)c(Cl)c1` [Example 146, 5-[2-chloro-3-fluoro-4-(fluoromethoxy)phenyl]-N-[3-chloro-4-[4-[2-[(3S)-pyrrolidin-3-yl]acetyl]piperazine-1-carbonyl]phenyl]-1-methyl-imidazole-2-carboxamide formate], the IC90 amounted to 40 nM.
